Compound `Nc1ccc([N+](=O)[O-])c(F)c1` returned a melting point of 160 °C. Turning to `CC(C=CC=C(C)C=CC12OC1(C)CC(O)CC2(C)C)=CC=CC=C(C)C=CC=C(C)C=CC12OC1(C)CC(O)CC2(C)C` (centres undefined), the melting point was found to be 208 °C. For the compound `O=c1c2ccccc2nc2n1CCc1c-2[nH]c2ccccc12`, the melting point turned out to be 260 °C. The value for `Cc1cccc(Oc2ncccc2[N+](=O)[O-])c1C` was 210 to 213 °C. The value for `CNCc1ccc(-n2ccnc2)cc1` was 67 to 69 °C. `NS(=O)(=O)c1ccc(SCCCO)cc1` returned a melting point of 117 °C.

For the compound `CC(C)(C)CCl`, the melting point is -20 °C.

The compound `O=C(O)CCc1ccc(F)cc1` gave a melting point of 90 °C. With `CCP(CC)CC`, the melting point is -88 °C. The value for `Cc1nc2ccccc2[nH]c(=O)c1=NNc1ccc(Cl)cc1` was 175 °C; that for `Cc1ccccc1CC(=O)O` was 88 °C.

The compound `Cc1nn(Cc2ccc(C(=O)O)o2)c(C)c1Br` registered a melting point of 207 to 208 °C.

`S=c1cn[nH]c(=S)[nH]1` returned a melting point of 209 to 210 °C. The value for `CCCCCOC(=O)Nc1nc(=O)n(C2OC(C)C(O)C2O)cc1F` (centres undefined) was 116 °C.

In turn, `CCCCCCCCCCCCCCCC1CCCCC1` gave a melting point of 29 °C. Consider `Cc1nc(C(=O)O)cs1`, for which the melting point lay within 148 to 149 °C. The result for `Cn1c(C(=O)O)cc2sccc21` reads 154 to 156 °C; that for `NC(=O)c1ccc(F)c(C(F)(F)F)c1`, 84.5 °C.

In the case of `CN1CCC2=C(C1)C(c1ccccc1)c1ccccc12` (centres undefined), the melting point was found to be 91 °C. With `Oc1ccc2c3c1OC1C(O)C=CC4C(C2)NCCC341` (centres undefined), the melting point turned out to be 273 °C.

Compound `C(=N\c1cc2c(cc1CCc1ccccc1)CC(c1ccccc1)N2)/c1ccccc1` (centres undefined) came in with a melting point of 118 °C.

For `N#Cc1cc(Br)c(O)c(Br)c1`, the melting point was found to be 190 °C.

On to `Nc1c(Cl)cc(OC(F)(F)F)cc1Cl`, for which the melting point worked out at 32 °C. Consider `CC(Cc1ccccc1)=NNc1ccccc1`, for which the melting point is 85 °C. The value for `CC(=O)C1CCC2(C)C(CCC3C4CCC(O)C4(C)CCC32)C1` (centres undefined) was 145 °C; that for `CCOC(=O)C(N)=S` was 63 °C; that for `Cn1c(=O)c2[nH]cnc2n(C)c1=O` was 270 °C. `O=C(O)c1cccc2c1-c1ccccc1C2` yielded a melting point of 192 to 194 °C. The value for `CSC(SC)=C(C#N)C(=O)c1ccc(Cl)cc1` was 82 to 84 °C. Turning to `Clc1nncc2ccccc12`, the melting point was 111 °C.

In turn, `Cc1cccc(O[Si]23OCCN(CCO2)CCO3)c1` displayed a melting point of 166 °C. Consider `CCCCc1c(C)nc(N)nc1O`, for which the melting point lay in the range of 273 to 275 °C. The value for `O=C1N[C@@H](c2ccccc2)CO1` was 130 to 133 °C.

In the case of `Cc1ccccc1S(=O)(=O)Cl`, the melting point turned out to be 10 °C. The value for `CC(=O)OC(OC(C)=O)c1ccccc1` was 46 °C; that for `CCOc1nc2ccccc2c(=O)n1CCO` was 81 to 82 °C; that for `CC(=O)N(Nc1ccccc1)c1ccc(N=Nc2ccccc2)cc1` was 186 °C. Compound `O=C(C1=NOC2C(=O)N(c3ccc(F)cc3)C(=O)C12)c1ccc(Cl)cc1` (centres undefined) had a melting point of 151 °C. The result for `Cc1cn(C2CC(F)C(CO)O2)c(=O)[nH]c1=O` (centres undefined) reads 177 °C. The value for `CC(=O)c1ccc(NC(=O)C(F)(F)C(F)(F)C(F)(F)C(F)(F)C(F)(F)C(F)(F)C(F)(F)C(F)(F)F)cc1` was 155 °C.

On to `O=c1c(Cl)c(Cl)cnn1Cc1c(Cl)cccc1Cl`, for which the melting point lay within 158 to 160 °C. The result for `COC(=O)c1ccc(O)c(Cl)c1` reads 107 °C; that for `CCOC(=O)c1csc(Cn2cnc(Cl)c2Cl)n1`, 126 to 129 °C; that for `Sc1cccc(Cl)c1Cl`, 57 to 61 °C. The value for `CCCCCOC(C)=O` was -70.8 °C; that for `C#CC1(O)CCC2C3CCC4=CC(=O)CCC4(C)C3CCC21C` (centres undefined) was 269 °C. The value for `CC1(C)c2ccccc2NC1C(N)=O` (centres undefined) was 168 to 170 °C.

On to `COc1c(Br)ccc2c1C(=NNc1ccc([N+](=O)[O-])cc1[N+](=O)[O-])C2`, for which the melting point was 309 to 310 °C.

As to `CCCCCCCCCCCCCCCCCC#N`, the melting point was determined as 41 °C. The result for `CCC(/C(=N/Nc1ccc([N+](=O)[O-])cc1[N+](=O)[O-])c1ccc(OC)cc1)C1CCCCC1` (centres undefined) reads 200 to 201 °C. `CC(=O)Nc1ccccc1/C=C/c1cc(/C=C/c2ccccc2)c([N+](=O)[O-])cc1[N+](=O)[O-]` showed a melting point of 265 °C. The result for `CN1CCC(N(Cc2ccccc2)c2ccccc2)CC1` reads 114 °C. Compound `O=C(NN=C1CCCCC1)C(=O)NN=C1CCCCC1` yielded a melting point of 210 °C. The value for `CC(C)(C)c1cc(C(F)(F)F)n[nH]1` was 178 to 180 °C. Regarding `C=C(Cl)C#N`, the melting point was -65 °C. The value for `CC(CCc1ccccc1)NC(C)C(O)c1ccc(O)cc1` (centres undefined) was 112 °C; that for `N=C(N)NC(=N)N` was 136 °C; that for `CC(=O)Oc1ccc(C2(c3ccc(OC(C)=O)cc3)C(=O)Nc3ccccc32)cc1` was 242 °C. The value for `CCOC(=O)C1N=C(c2ccccc2F)c2cc(Cl)ccc2NC1=O` (centres undefined) was 194 °C. Regarding `CCOCCC(=O)OCC`, the melting point is -75 °C. `NCc1ccc(-c2nccs2)cc1` yielded a melting point of 39 to 42 °C. The value for `OC1OC(c2ccccc2)Cc2ccccc21` (centres undefined) was 100 to 103 °C; that for `O=c1c2ccccc2cc2ccc3ccccc3n12` was 125 °C.

Take `N[C@@H]1CCc2ccccc21`: the melting point was determined as 15 °C.

The compound `Oc1ccc(Cl)cc1Cc1cc(Cl)ccc1O` registered a melting point of 178 °C. Turning to `CCCCCCCC(C)=O`, the melting point was -7.5 °C. Regarding `Cc1cc(C)cc(C=O)c1`, the melting point was in the range of 8 to 10 °C. As to `COc1ccc(/N=N/c2sc(CC#N)nc2C)cc1`, the melting point is 158 °C.

Consider `CC12CCC(C(=Cc3ccccc3)C1=O)C2(C)C` (centres undefined), for which the melting point is 97 °C.

`Cc1nc(-c2ccc(C=O)cc2)no1` yielded a melting point of 115 °C. With `O=C1Cc2ccccc2CO1`, the melting point was 82 to 83 °C. Consider `CC(C)(C)c1ccc(CSc2cnn(C(C)(C)C)c(=O)c2Cl)cc1`, for which the melting point came to 112 °C. The result for `CC1(C)OC(=O)C(=Cc2ccc(-c3cccc([N+](=O)[O-])c3)o2)C(=O)O1` reads 179 °C. The value for `CC(C)=C1OC(=O)C1(C)C` was -18 °C; that for `O=C(CN1CCN(Cc2ccc3c(c2)OCO3)CC1)N1c2ccccc2Sc2ccccc21` was 142 °C.

For `COc1cc(C(=O)c2cccc(Br)c2)c([N+](=O)[O-])cc1OC`, the melting point stood at 119 °C. The value for `O=C(NC(=O)c1c(F)cccc1F)Nc1cc(Cl)c(Oc2ncc(C(F)(F)F)cc2Cl)c(Cl)c1` was 223 °C. `CC(=O)Nc1cc(C(F)(F)F)cc(C(F)(F)F)c1` came in with a melting point of 161 °C. In the case of `CC(=NO)c1cccs1`, the melting point lay in the range of 113 to 114 °C. The result for `O=[N+]([O-])/C=C/c1ccccc1` reads 58 °C; that for `NC(=S)Cc1ccc(Cl)cc1`, 129 to 131 °C. The value for `O=C(Nc1ccc(F)cc1)Nc1nnc(-c2ccc(Cl)cc2)o1` was 268 to 270 °C; that for `COc1ccccc1N1CCN(CCCNc2cc(=O)n(C)c(=O)n2C)CC1` was 156 °C. The result for `Cc1cc(C2CC2)nc(Nc2ccccc2)n1` reads 75.9 °C. `N#CC1=C(N)Oc2[nH]nc(C(F)(F)F)c2C1c1ccccc1Cl` (centres undefined) showed a melting point of 181 °C. Compound `CON1C(=O)C(=O)N(OC)C2CCCCC21` (centres undefined) returned a melting point of 128 to 131 °C.

Compound `c1ccc(-c2cc3ccccn3c2)cc1` displayed a melting point of 211 to 214 °C. The value for `COc1cc2c(cc1OC)C(C#N)N(C(=O)c1ccccc1)CC2` (centres undefined) was 214 to 217 °C. `OCCN1CCNC1=S`: the melting point was 136 to 138 °C.

`Nc1nc(O)nc2[nH]ncc12` registered a melting point of 320 °C. The result for `Cc1ccc2nc(C)cc(C)c2c1` reads 68 °C. The result for `COc1ccc(-c2cc(=O)c3c(O)c(OC)c(OC)cc3o2)cc1O` reads 191 °C; that for `COC(=O)C(c1ccccc1Cl)N1CCc2sccc2C1` (centres undefined), 158 °C. The value for `Cc1ccc(-c2csc(/C(C#N)=N\Nc3ccc(Cl)cc3)n2)cc1` was 172 °C. `O=C1C(Cl)=C(Nc2ccccc2)C(=O)c2ccccc21` displayed a melting point of 215 °C. In turn, `O=C(O)Cc1c(Cl)cccc1C(F)(F)F` registered a melting point of 151 °C. In turn, `O=C1C=C(NCc2ccc(Cl)c(Cl)c2)C(=O)c2ccccc21` showed a melting point of 217 °C. The result for `c1ccc2nc(-c3cc(-c4cnc5ccccc5n4)cc(-c4cnc5ccccc5n4)c3)cnc2c1` reads 302 °C. For the compound `CC1CCSCC1`, the melting point is -28 °C.

Take `CC1(c2ccc(Oc3ccccc3)cc2)OC(=O)N(Nc2ccccc2)C1=O` (centres undefined): the melting point amounted to 142 °C. `Cc1c(Cl)cccc1S(=O)(=O)Cl` showed a melting point of 71 to 73 °C. The value for `NC(=O)C(F)(F)C(F)(F)C(F)(F)F` was 103 to 105 °C. The value for `CCCCCC#CCO` was -18 °C; that for `O=C(c1ccccc1)c1nn2c(C(F)(F)F)nnc2s1` was 157 °C. The compound `O=[N+]([O-])c1cc([N+](=O)[O-])c(C(Br)=Cc2ccccc2)cc1/C=C\c1ccccc1` came in with a melting point of 194 to 196 °C. In turn, `c1ccc2c(c1)-c1ccc3ccc4cccc5cc-2c1c3c45` yielded a melting point of 164 °C. The value for `N[C@H](C(=O)O)C1CCCCC1` was 256 °C.

`c1ccc2c(c1)CCc1ccccc1N2C1CN2CCC1CC2` (centres undefined) registered a melting point of 150 °C. `O=[N+]([O-])c1cccc(F)c1`: the melting point worked out at 41 °C.

(Values after a melting point compilation (Tetko et al.).)
